Patent publication US20260226064A1, “POLYCYCLIC COMPOUND FOR TREATING NEUROLOGICAL DISEASES AND TUMORS” (Shanghai Institute of Organic Chemistry, Chinese Academy of …, priority 2023, published 2026)
Like-named read-outs stand apart in the source and are kept apart here.

Legend:
[1] = Mouse Oral Pharmacokinetic Study; format: in vivo; details: mouse, male CD1 mice, oral gavage 10 mg/kg; for Kp at 4 h: brain/plasma, read-out: Cbrain/Cplasma; for AUC(0-t) / Cmax / Tmax: plasma; for AUC(0-t): 0-4 h, read-out: AUC0-4h; for Cmax: read-out: Cmax; for Tmax: read-out: Tmax
Procedure: Healthy male CD1 mice were used as experimental animals. The drug was administered by oral gavage at a dose of 10 mg/kg with a dosing volume of 10 mL/kg. Drug preparation: 10 mg of the compound was placed in 10 mL of 50% PEG400 or 20% HPb-cyclodextrin, ground and shaken to ensure uniform distribution of the compound in small particle size, followed by oral administration. Blood samples were collected at 30 min, 1 h, 2 h, and 4 h post-dose, and brain tissues were sampled at 4 h. EDTA dipotassium salt was added to the blood samples, and plasma was obtained after centrifugation. The supernatant was analyzed after dilution with 5 volumes of acetonitrile and centrifugation. The brain tissue homogenate was diluted with 3.5 volumes of acetonitrile, centrifuged, and the supernatant was collected for analysis. The samples were then analyzed by liquid chromatography-tandem mass spectrometry (LC-MS/MS): the instrument was AB Sciex 3500; the mobile phase consisted of 0.1% formic acid in water (A)/0.1% formic acid in acetonitrile (B), with gradient elution.

[2] = system: acetylated microtubule in HEK293T cells; experiment: Microtubule-Stabilizing Activity Assay (acetylated microtubule immunoblot, HEK293T, colchicine challenge); format: cell-based; details: 1 h pre-incubation, then colchicine 1 μM 3 h, relative to CNDR-51657 at 500 nM = 1.00; for Microtubule-Stabilizing Activity 50 nM: compound 50 nM; for Microtubule-Stabilizing Activity 500 nM: compound 500 nM
Summary of the method: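 HEK293T cells pretreated with compound or DMSO 1 h at 37 °C, then challenged with 1 μM colchicine for 3 h. Lysates (RIPA plus 1 μM trichostatin A) immunoblotted for acetylated and α-tubulin, quantified by densitometry. Activity expressed relative to CNDR-51657 at 500 nM set as 1.00.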

[3] = brain tissue at 4 h, read-out: Cbrain@4h
[4] = plasma at 4 h, read-out: Cpasma@4h

| Compound | Kp at 4 h [1] | concentration at 4 h [1, 3] | concentration at 4 h [1, 4] | AUC(0-t) [1] | Cmax [1] | Tmax [1] | Microtubule-Stabilizing Activity 50 nM [2] | Microtubule-Stabilizing Activity 500 nM [2] |
| --- | --- | --- | --- | --- | --- | --- | --- | --- |
| C[C@H](Nc1c(-c2c(F)cc(OCC3[C@H]4CN(C)C[C@@H]34)cc2F)c(Cl)nc2ncnn12)C(F)(F)F (stereo partly drawn) [Example 25, 5-Chloro-6-(2,6-difluoro-4-(((1R,5S,6r)-3-methyl-3-azabicyclo[3.1.0]hexan-6-yl)methoxy)phenyl)-N—((S)-1,1,1-trifluoropropan-2-yl)-[1,2,4]triazolo[1,5-a]pyrimidin-7-amine] | 1.45 | 198 ng/mL | 137 ng/mL | 939 ng·h/mL | 399 ng/mL | 45 min | 0.96 | 1.31 |
| C[C@@H](Nc1c(-c2c(F)cc(C#C[C@@H]3[C@H]4CN(C)C[C@@H]34)cc2F)c(Cl)nc2ncnn12)C1CCC1 [Example 46, 5-Chloro-N—((R)-1-cyclobutylethyl)-6-(2,6-difluoro-4-(((1R,5S,6s)-3-methyl-3-azabicyclo[3.1.0]hexan-6-yl)ethynyl)phenyl)-[1,2,4]triazolo[1,5-a]pyrimidin-7-amine] | 1.09 | 356 ng/mL | 325 ng/mL | 1600 ng·h/mL | 572 ng/mL | 30 min | 1.76 | 1.44 |
| C[C@H](Nc1c(-c2c(F)cc(C#CC3[C@H]4CN(C)C[C@@H]34)cc2F)c(Cl)nc2ncnn12)C(F)(F)F (stereo partly drawn) [Example 48, 5-Chloro-6-(2,6-difluoro-4-(((1R,5S,6s)-3-methyl-3-azabicyclo[3.1.0]hexan-6-yl)ethynyl)phenyl)-N—((S)-1,1,1-trifluoropropan-2-yl)-[1,2,4]triazolo[1,5-a]pyrimidin-7-amine] | 2.83 | 1020 ng/mL | 359 ng/mL | 1810 ng·h/mL | 591 ng/mL | 45 min | 1.42 | 1.66 |
| CC(C)[C@@H](C)Nc1c(-c2c(F)cc(C#C[C@@H]3[C@H]4CN(C)C[C@@H]34)cc2F)c(Cl)nc2ncnn12 [Example 55, 5-Chloro-6-(2,6-difluoro-4-(((1R,5S,6s)-3-methyl-3-azabicyclo[3.1.0]hexan-6-yl)ethynyl)phenyl)-N—((R)-3-methylbutan-2-yl)-[1,2,4]triazolo[1,5-a]pyrimidin-7-amine] | 1.22 | 375 ng/mL | 306 ng/mL | 1450 ng·h/mL | 496 ng/mL | 30 min | 1.8 | 1.62 |
| Cc1nc2ncnn2c(N[C@H](C)C(C)C)c1-c1c(F)cc(OCC2[C@H]3CN(C)C[C@@H]23)cc1F (stereo partly drawn) [Example 57, 6-(2,6-Difluoro-4-(((1R,5S,6r)-3-methyl-3-azabicyclo[3.1.0]hexan-6-yl)methoxy)phenyl)-5-methyl-N—((R)-3-methylbutan-2-yl)-[1,2,4]triazolo[1,5-a]pyrimidin-7-amine] | 0.96 | 102 ng/mL | 106 ng/mL | 525 ng·h/mL | 161 ng/mL | 30 min | – | 1.90 |
| CN1C[C@@H]2[C@@H](/C=C/c3cc(F)c(-c4c(Cl)nc5ncnn5c4NCC(F)(F)F)c(F)c3)[C@@H]2C1 [Example 58] | 3.58 | 222 ng/mL | 62 ng/mL | 368 ng·h/mL | 115 ng/mL | 60 min | 1.09 | 1.63 |
| Cc1nc2ncnn2c(NCC(F)(F)F)c1-c1c(F)cc(OC[C@@H]2[C@H]3CN(C)C[C@@H]23)cc1F [Example 60] | 1.32 | 62 ng/mL | 47 ng/mL | 696 ng·h/mL | 379 ng/mL | 30 min | 0.95 | 1.24 |
| CC(C)[C@@H](C)Nc1c(-c2c(F)cc(F)cc2F)c(Cl)nc2ncnn12 [Intermediate 4, (R)-5-Chloro-N-(3-methylbutan-2-yl)-6-(2,4,6-trifluorophenyl)-[1,2,4]triazolo[1,5-a]pyrimidin-7-amine, reference compound] | 0 | 0 ng/mL | 3 ng/mL | 57 ng·h/mL | 49 ng/mL | 30 min | 0.2-0.3 | 1.00 |
